Our source for the Vmax and Km values is US20060183119A1, “Method for determining predisposition to a physiological reaction in a patient” (UNIVERSITE LAVAL, priority 2002, published 2006).

This series deals with T1, human UGT1A9*1 (Homo sapiens, UniProt O60656).
T1 sequence (O60656 26-530): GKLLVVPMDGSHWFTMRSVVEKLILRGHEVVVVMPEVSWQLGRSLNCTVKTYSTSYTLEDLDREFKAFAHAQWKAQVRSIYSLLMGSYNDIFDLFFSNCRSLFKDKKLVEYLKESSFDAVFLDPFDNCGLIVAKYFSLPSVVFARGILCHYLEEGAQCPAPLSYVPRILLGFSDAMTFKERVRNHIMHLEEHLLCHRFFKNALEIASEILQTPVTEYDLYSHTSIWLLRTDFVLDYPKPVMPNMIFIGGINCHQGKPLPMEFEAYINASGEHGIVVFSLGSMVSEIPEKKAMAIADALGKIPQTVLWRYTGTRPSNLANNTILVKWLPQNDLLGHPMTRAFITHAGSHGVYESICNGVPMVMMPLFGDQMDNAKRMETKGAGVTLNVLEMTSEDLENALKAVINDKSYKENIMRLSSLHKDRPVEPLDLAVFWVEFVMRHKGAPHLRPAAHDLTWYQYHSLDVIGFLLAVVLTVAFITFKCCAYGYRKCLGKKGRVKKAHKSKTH
To be noted: SN-38 glucuronidation. The protocol:
Microsomal fractions from HEK-293 cells stably expressing human UGT1A9*1, UGT1A9*2 and UGT1A9*3 were used in enzymatic assays. Reactions (100 μl volume) contained 50 mM Tris-HCl, pH 7.3, 10 mM MgCl2, 100 μg/mL phosphatidylcholine, 1 mM UDP-glucuronic acid, 40 to 60 μg of membrane protein. […] Human liver microsome were incubated in the same condition for control. Reaction was stopped by the addition of 200 μL MeOH+1% HCl 2N, followed by centrifugation at 14000 rpm for 10 minutes. Supernatant was filtered through a 0.22 μm filter and 100 μL of water was added. For SN-38 and SN-38-glucuronide detection, 10 μL samples were injected on a liquid chromatographic system coupled to a fluorescence detector. Time-course experiments were realized to determine the linearity of the glucuronidation reaction.
A liquid chromatographic method was developed to quantify SN-38 glucuronidation of UGT cell line-derived microsomes and human liver microsomes. Samples were analyzed using high performance liquid chromatography (Alliance 2695, Waters, Milford, Mass.). […] At a constant flow rate (0.7 ml/min), a linear gradient from 20 to 65% B was run over 3 min, held 0.8 min and a second gradient until 95% of B was run over 2 min and then re-equilibrated to 20% B over 2 min. The effluent from the HPLC system (Alliance 2695) was connected directly to a fluorescence detector (Waters, Milford, Mass.) using an excitation wavelength of […] and an emission of 460 nm. […] Determination of the glucuronidation rates obtained with other substrates was performed as currently known in the art.
Microsomal fractions from HEK293 (40 to 60 μg) were added to a reaction mixture (100 μL) containing 50 mM Tris-HCl, pH 7.3, 10 mM MgCl2, 100 μg/mL phosphatidylcholine and 2 mM UDP-glucuronic acid. […] Commercially available human liver microsomes (Human Cell Culture Center Inc., Laurel, Md.) were incubated in the same conditions for all experiments. Time-course experiments were performed to determine the linearity of the glucuronidation reaction. For the determination of Vmax and Km. HEK293 cells stably expressing UGT1A9 enzymes were incubated in the presence of various concentrations of SN-38 ranging from 0.1 to 200 μM and incubated for 30 min as described above whereas UGT1A7 membranes preparations were incubated for 3 hours. […] For the detection of SN-38 and its glucuronide (SN-38G), 10 μL samples were injected in a liquid chromatographic system (HPLC) coupled to fluorescence detector as described below.
A HPLC method was developed to quantify the rates of SN-38 glucuronidation from the various microsomal fractions under study. […] The column was connected to a fluorescence detector model 474 (Waters, Milford, Mass.) and the molecules were excited at a wavelength of 370 nm and an emission of 425 nm.

Values joined by “and” are separate entries in the source; they are usually repeats but may differ in a detail not shown here. Identical values can stand only once. Like-named read-outs stand apart in the source and are kept apart here.

One may read the Km as the substrate concentration at which the rate is half of its maximum.

As to `CCc1c2c(nc3ccc(O)cc13)-c1cc3c(c(=O)n1C2)COC(=O)[C@]3(O)CC` [SN-38, 7-ethyl-10-hydroxycamptothecin], the Vmax reads like this: (0.1 to 200 μM, mean±SD) 316.34±52.03 pmol/min/mg protein; (Table 5) 316.34 ± 52.03. For the same compound, the Km is 3.03 ± 0.72 µM (Table 5); 3.03 µM and 3.02 µM (read-out: Apparent Km, 0.1 to 200 μM, mean±SD, Lineweaver-Burk).
